# Measurements: patent US9708638B1, “Protease assay method using site-specific fluorescence dye labeled protein as substrate” (EZBiolab, priority 2014, dated 2017)
# Columns and labels:
# Format in all cases: biochemical
# [1] = target: T1, Renin (Homo sapiens, UniProt P00797); assay: Fluorescence polarization assay of cleavage of FITC-angiotensinogen by Renin; conditions: inhibitor at final concentration 10 uM
# T1 sequence (P00797 67-406): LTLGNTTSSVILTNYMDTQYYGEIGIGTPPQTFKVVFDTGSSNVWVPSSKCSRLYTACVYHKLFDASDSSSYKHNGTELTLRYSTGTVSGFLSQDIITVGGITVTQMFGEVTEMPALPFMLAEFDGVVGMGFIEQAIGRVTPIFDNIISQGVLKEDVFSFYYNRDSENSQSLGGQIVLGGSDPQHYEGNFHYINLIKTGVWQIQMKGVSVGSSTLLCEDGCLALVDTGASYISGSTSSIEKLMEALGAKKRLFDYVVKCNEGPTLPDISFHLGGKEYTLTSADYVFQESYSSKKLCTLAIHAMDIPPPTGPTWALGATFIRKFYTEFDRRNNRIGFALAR
# Method: Cleavage of FITC-angiotensinogen by Renin produces two products: FITC-AAGCDRVYIHPFHL (FITC-angiotensin) and angiotensinogen protein. To initiate the cleavage reaction, 1 ul Renin (0.1 mg/ml) stock solution may be added to 100 ul FITC-angiotensinogen in 20 mM Tris-HCL, PH 8.5. The final concentration of FITC-angiotensingen may be about 1 uM. […] This confirms the specific cleavage of FITC-angiotensinogen by Renin.
# An alternative strategy to label the full length angtensinogen is to delete 16 residues from the N-terminus of angtensinogen. This shorted angtensinogen has a Cys at its N-terminal end and is fused to sumo. Using the same protocol as described above, this fusion protein is expressed, purified and cleaved by Sumo protease to produce the N-terminal 16 residue deleted angtensinogen. Referring to FIG. 7, ligation of the N-terminal 16 residue deleted angtensinogen to the FITC-DRVYIHPFHLVIHNEST-thioester, a slightly different version of FITC-angiotensinogen is produced. […] Cleavage of this FITC-angiotensinogen by Renin may be measured by recording fluorescence polarization signal as a function of time, as shown in FIG. 8. […] This proves that the FITC-angiotensinogen may be used as a substrate for Renin activity assay by recording the fluorescence polarization and the assay may be used to identify its inhibitors.
# [2] = test system: ADAM 17; assay: Fluorescence polarization assay of cleavage of N-terminal FITC labeled pro-TNF-α by Adam 17; conditions: inhibitor at final concentration 10 uM; FIG. 3 Trace B
# Method: (§1) Cleavage of N-terminal FITC labeled pro-TNF-α was performed by a fluorescence polarization assay. The assay was performed with a SpectraMax fluorescence plate reader in 96-well format. In a typical assay, 1 μM substrate protein was preincubated at 37° C. for 20 minutes. The reaction was initiated by addition of Adam 17 to the substrate solution. The final concentration of Adam 17 was 48 nM. The total reaction volume was […]. The reaction buffer was 50 mM Tris-HCl, pH 7.5, 2.5 μM ZnCl2, 0.005% Brij-35. In inhibition assays, the inhibitor was preincubated with its target protein for 30 minutes before reaction was initiated.
# (§2) The concentration of product was calculated according to equation (1): [P]=(F[S]−Fs[S])/(Fp−Fs); where [P] is the concentration of product, F is the experimental recorded fluorescence polarization value, [S] is the total concentration of substrate and Fs and Fp are fluorescence polarization values of substrate and product, respectively. Fp is determined from a synthetic peptide with an identical sequence to the N-terminal fragment of the cleavage products.
# (§3) To initiate the cleavage reaction, 1 ul ADAM 17 (0.1 mg/ml) stock solution may be added to 100 ul FITC-[pro-TNF-α] in 20 mM Tris-HCL, PH 8.5. The final concentration of FITC-[pro-TNF-α] is about 1 uM.
# [3] = target: ADAM 17 (Homo sapiens, UniProt P78536); assay: Cleavage of peptide substrate by Adam 17 (HPLC); conditions: HPLC results
# Chain of ADAM 17 (Homo sapiens, UniProt P78536) (P78536 215-824): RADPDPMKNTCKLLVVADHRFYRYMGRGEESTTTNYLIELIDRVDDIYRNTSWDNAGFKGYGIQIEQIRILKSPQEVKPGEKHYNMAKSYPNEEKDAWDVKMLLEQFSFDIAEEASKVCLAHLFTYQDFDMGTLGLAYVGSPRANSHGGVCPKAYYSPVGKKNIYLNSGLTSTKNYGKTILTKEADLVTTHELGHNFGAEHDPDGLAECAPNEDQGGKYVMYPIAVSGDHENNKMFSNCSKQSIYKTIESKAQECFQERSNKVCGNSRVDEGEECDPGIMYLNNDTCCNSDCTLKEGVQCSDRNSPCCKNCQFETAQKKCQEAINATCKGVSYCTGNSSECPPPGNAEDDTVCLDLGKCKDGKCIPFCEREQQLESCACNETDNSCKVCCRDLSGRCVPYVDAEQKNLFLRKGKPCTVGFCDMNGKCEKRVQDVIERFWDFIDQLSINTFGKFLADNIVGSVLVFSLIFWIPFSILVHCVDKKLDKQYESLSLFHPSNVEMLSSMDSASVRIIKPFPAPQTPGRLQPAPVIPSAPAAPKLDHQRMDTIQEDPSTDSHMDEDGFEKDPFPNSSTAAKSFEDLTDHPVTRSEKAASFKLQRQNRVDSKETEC
# Method: Cleavage of peptide substrates: Two peptide substrates were used in this study. PS1 is Mca-PLAQAV-Dpa-RSSSR-NH2 (22), a fluorescence resonance energy transfer based substrate, the activity was measured by fluorescence intensity change upon cleavage. PS2 may be the non-fluorescence version of PS1. For PS1, in a typical assay, 10 μM substrate was preincubated at 37° C. for 20 minutes. The reaction was initiated by addition of Adam 17 to the substrate solution at the final concentration of 16 nM. The total reaction volume may be 100 μl. The reaction buffer may be 50 mM Tris-HCl, pH 9.0, 2.5 μM ZnCl2, 0.005% Brij-35. In inhibition assays, inhibitor was preincubated with peptide substrate for 30 minutes. For PS2, reaction conditions were identical to PS1.
# Referring to FIGS. 13 and 14, TNF-α Inhibitor is a small molecule that blocks interaction of TNF-α with its receptor by binding to TNF-α. This compound may affect the activity of Adam 17 to convert pro-TNF-α to TNF-α. Referring to FIG. 13, it is shown that at a concentration of about 200 μM, TNF-α inhibitor reduces the reaction rate by about 40%, which is validated by the electrophoresis assay results shown in FIG. 14. […] Based on the established direct binding between the compound and TNFα, it is believed that the inhibition effect is caused by the interaction of the compound to pro-TNFα.
# [4] = target: ADAM 17 (Homo sapiens, UniProt P01375); assay: Fluorescence polarization assay of cleavage of N-terminal FITC labeled pro-TNF-α by Adam 17
# Chain of ADAM 17 (Homo sapiens, UniProt P01375) (P01375 with tags, fused parts or gaps): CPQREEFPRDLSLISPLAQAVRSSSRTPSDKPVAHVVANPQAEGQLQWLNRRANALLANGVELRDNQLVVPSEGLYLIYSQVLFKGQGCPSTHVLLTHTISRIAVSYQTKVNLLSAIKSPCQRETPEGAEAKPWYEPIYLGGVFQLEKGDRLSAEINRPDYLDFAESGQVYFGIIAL
# Method: as §1, §2, §3
# [5] = target: T2, BACE (Homo sapiens, UniProt P56817); assay: Fluorescence polarization assay of cleavage of APP365-699-[5-TAMRA] by BACE; conditions: inhibitor included in the cleavage reaction; FIG. 10 Trace B
# T2 construct: made in house; host or cells: E. coli
# T2 sequence (P56817 46-501): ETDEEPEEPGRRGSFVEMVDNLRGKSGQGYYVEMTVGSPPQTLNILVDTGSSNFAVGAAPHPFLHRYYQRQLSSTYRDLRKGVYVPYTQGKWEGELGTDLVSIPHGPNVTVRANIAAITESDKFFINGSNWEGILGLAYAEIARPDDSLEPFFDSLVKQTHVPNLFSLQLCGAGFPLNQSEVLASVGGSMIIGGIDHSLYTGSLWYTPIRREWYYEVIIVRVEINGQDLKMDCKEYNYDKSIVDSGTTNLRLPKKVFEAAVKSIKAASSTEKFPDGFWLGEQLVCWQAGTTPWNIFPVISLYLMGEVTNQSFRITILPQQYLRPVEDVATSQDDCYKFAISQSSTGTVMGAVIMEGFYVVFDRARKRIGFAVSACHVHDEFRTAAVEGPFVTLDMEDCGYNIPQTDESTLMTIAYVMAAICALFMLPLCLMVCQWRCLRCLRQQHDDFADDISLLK
# From the text: Referring to FIGS. 9-11, in this example Beta-secretase (BACE) is one of the two proteases that cleave amyloid precursor protein (APP) to produce amyloid peptide 1-42. Human APP is a 733 residue protein. Full length of APP is consisted of several domains. BACE cleaves APP between residue 671 and 672. In this example, a fluorescence dye is specifically conjugated to the C-terminal end of APP365-699 that contains two independent folded domains. Gene encoding APP365-699 is fused to the N-terminal end of intein. After MESNA mediated self cleavage between APP365-699 and intein, a thioester group, is added to the C-terminal end of APP365-699. A fluorescence dye conjugated small peptide, CysGlySerLys-[5-TAMRA], is then ligated to the C-terminal end of APP365-699 to produce fluorescent dye labeled APP365-699:
# As a result, fluorescence polarization of 5-TAMRA reduces. […] It proves that APP365-699-[5-TAMRA] may be used as a substrate for BACE activity assay by recording the fluorescence polarization. […] Thus, APP365-699-[5-TAMRA] may be used as a substrate for BACE activity assay by recording the fluorescence polarization and the assay may be used to identify its inhibitors.
molecule,measurement,setting,value
RRPFH-Sta-IHK,fluorescence polarization change during cleavage of FITC-angiotensinogen by Renin,"[1]; FITC-angiotensinogen made from N-terminal 16 residue deleted angiotensinogen, FIG. 8 Trace B",little change
same,fluorescence polarization change during cleavage of FITC-angiotensinogen by Renin,"[1]; full length FITC-angiotensinogen, FIG. 6 Trace B",little change
CNC(=O)[C@H](Cc1c[nH]c2ccccc12)NC(=O)[C@@H](CC(=O)NO)CC(C)C [N-[(2R)-2-(Hydroxamidocarbonylmethyl)-4-methylpentanoyl]-L-tryptophan methylamide],fluorescence polarization change during cleavage of FITC-[pro-TNF-α] by ADAM 17,[2],little change
"Cc1cc2occ(CN(C)CCN(C)Cc3cn(-c4cccc(C(F)(F)F)c4)c4ccccc34)c(=O)c2cc1C [TNF-α inhibitor, 6,7-Dimethyl-3-((methyl-(2-(methyl-(1-(3-trifluoromethyl-phenyl)-1H-indol-3-ylmethyl)-amino)-ethyl)-amino)-methyl)-chromen-4-one]",cleavage activity of Adam 17 to the peptide substrate,[3],not affected
same,cleavage rate of FITC-(pro-TNF-α) by ADAM 17,[4]; 200 uM compound pre-incubated with FITC-(pro-TNF-α) for 30 minutes,reduced
same,reduction of the reaction rate (conversion of pro-TNF-α to TNF-α by Adam 17),"[4]; inhibitor at about 200 μM, FIG. 13",about 40%
KTEEISEVN-Sta-VAEF,fluorescence polarization during cleavage of APP365-699-[5-TAMRA] by BACE,[5],remains unchanged
